Entries after “also recorded” stand apart in the source; their conditions may differ.
Tests used:
mTORC1 = assay: Immunoblot of mTORC1 signaling and LC3B, panel of lysosomal inhibitors; details: A375P cells; for 4E-BP1 phosphorylation: PES 10 μM, PET 10 μM, Bafilomycin A1 100 nM; for mTORC1 activity (Western blotting): DQ661 3 μM, Pepstatin A 10 μG/mL, Siramesine 8 μM
A375P (melanoma) cells = assay: MTT anti-proliferative assay (72 hr) in A375P cells; assay type: cell-based; details: for anti-proliferative potency / activity (comparative): A375P and PANC1 cells, FIGS. 1C and 1D
Protocol: (§1) (A) Schematic of dimeric antimalarials (B) A375P cells were plated in a 384-well highthroughput format and treated with the quinacrine-, mefloquine- and primaquine-based compounds shown (72 hr, 1 nM-30 μM). Viability was standardized to vehicle (water) treated controls and shown are Log IC50 values calculated using GraphPad Prism. Alamar blue. (C) A375P cells were treated with the DQ compound library (72 hr, 1 nM-30 μM) MTT. (D) PANC1 cells were treated identically to (C). (E) PANC1 cells were treated with the DQ compound library as well as Lys05, Spautin and SBI-0206965 (72 hr, 3 μM). Apoptosis was assessed by Annexin-V/flow cytometry.
For MTT assays, cells were plated in 96-well plates (2,000 cells/well), allowed to adhere overnight, and subsequently treated in triplicate for 72 hours. MTT reagent (Roche) was applied, cells were solubilized and absorbance was read at 570 nm, with background subtraction at 690 nm. The clonogenic assay was performed as previously described. Briefly, cells were suspended in appropriate culture media, and plated in 6-well plates (2×10^3 cells/well). Medium was changed and drug treatment refreshed every 3-4 days for 2 weeks. Cells were subsequently stained with crystal violet and quantified.
In an attempt to improve in vivo activity, we designed a series of second-generation analogs of Lys05 to test the effect of changing each of the separate parts of the Lys05 structure on lysosomal inhibition and cytotoxicity. Replacement of the linker of Lys05 with the commercially available linker spermidine and exchanging the aromatic rings of Lys05 from CQ to the antimalarial-based heterocyclic systems primaquine (PQ), mefloquine (MQ) and quinacrine (QC) was interrogated (FIG. 1A). The dimeric antimalarial compounds were named DC (dimeric chloroquine), DM (dimeric mefloquine), DP (dimeric primaquine) and DQ (dimeric quinacrine). The dimeric compounds were named followed by three digits (m, n, r) where m signifies the number of carbons to the left of the central nitrogen, the n signifies the number of carbons on the right of the central nitrogen and the r signifies if the central nitrogen is methylated (1) or not (0). […] We generated a focused library of DQs with triamine linkers of increasing length ranging from lengths of two to eleven carbons between the QC heterocycle and the central nitrogen of the triamine linker. Both secondary and tertiary amine derivatives of each analog were generated to determine the role of central nitrogen alkylation on biological activity. A375P and PANC1 (pancreatic cancer) cells were treated with CQ, Lys05, QC and the DQ library, establishing the increase in anti-proliferative potency of DQs relative to monomeric QC. […] We observed a clear relationship between linker length and potency amongst the DQs. […] When tested in parallel to the DQs. […] PANC1 cells were treated with the panel of DQs (3 uM) as well as Spautin-1 (3 μM) and SBI-0206965 (3 μM) for 24 hours.

A375P cells [1] = assay: Galectin-3 punctae assay (lysosomal membrane permeabilization); assay type: cell-based; details: 6 hours (LLOMe 3 hr, 2 mM)
Protocol: (§2) FIG. 3: Central nitrogen methylation status dictates DNA damage versus lysosomal membrane permeability. […] Cells were imaged with fluorescent microscopy, phospho-H2AX+ cells were scored using ImageJ software analysis and quantified to the right. (B) A375P cells were treated identical to the conditions in (A), with the addition of the positive control LLoMe (3 hr, 2 mM). Cells were subsequently stained with galectin-3 and imaged with fluorescent microscopy. The formation of galectin-3 punctae, which signify lysosomal membrane permeabilization, are pointed out with yellow arrows.
When lysosomes are healthy, galectin-3 is uniformly dispersed throughout the cell. However, when the lysosome is damaged, galectin-3 rapidly localizes to the site of damaged lysosomes, appearing as punctae and marking individual leaky lysosomes.

PANC1 cells = assay: Annexin V binding flow cytometry apoptosis assay; assay type: cell-based; details: 3 μM, 24 hours
Protocol: as §1
In an attempt to improve in vivo activity, we designed a series of second-generation analogs of Lys05 to test the effect of changing each of the separate parts of the Lys05 structure on lysosomal inhibition and cytotoxicity. Replacement of the linker of Lys05 with the commercially available linker spermidine and exchanging the aromatic rings of Lys05 from CQ to the antimalarial-based heterocyclic systems primaquine (PQ), mefloquine (MQ) and quinacrine (QC) was interrogated (FIG. 1A). The dimeric antimalarial compounds were named DC (dimeric chloroquine), DM (dimeric mefloquine), DP (dimeric primaquine) and DQ (dimeric quinacrine). […]

451Lu (melanoma) cells = assay: Bafilomycin clamp experiment (autophagic flux); assay type: cell-based; details: 3 μM, with or without bafilomycin-A1, 24 hours
A375P cells [2] = assay: phospho-H2AX immunofluorescence (DNA damage); assay type: cell-based; details: 6 hr, 3 μM
Protocol: as §2
The longer linked DQs can be separated into two classes based on central nitrogen substitution (secondary or tertiary amine)—those that localize to the nucleus and those that localize to the lysosome. We next sought to determine whether both classes of DQs cause DNA damage since quinacrine is known to intercalate DNA. […] Furthermore, the difference in DNA damage induced by unmethylated DQs versus the corresponding methylated DQs for each pair of compounds increase with increasing linker length.

[3] = tested on: 1205Lu melanoma xenografts; assay: 1205Lu melanoma xenograft model; assay type: in vivo, NSG mice; details: 8 mg/kg i.p., 2 days on / 2 days off
Protocol: FIG. 5: DQ661 has significant single-agent in vivo activity in melanoma xenograft model. […]. Mice were randomly split into 4 arms and treated with vehicle control (water, i.p.), quinacrine (8 mg/kg, i.p.), DQ660 (8 mg/kg, i.p.) or DQ661 (8 mg/kg, i.p.). Treatments were given as shown by the black arrows, following a regimen of 2 days on treatment followed by 2 days off treatment. (C) Representative electron micrographs from melanoma xenograft tumors harvested after 2 days of treatment according to (B). (D) Average tumor volumes for each treatment arm are shown. Each point represents the mean of N=8 mice per treatment arm and the error bars represent standard error (s.e.) (C) Representative EM for tumors treated in each arm. (E) A schematic for how mice were treated in (F). […]. Mice were randomly split into 3 arms and treated with water (i.p.), DQ661 (2 mg/kg, i.p.) or DQ661 (4 mg/kg, i.p.). Treatments were give as shown by the black arrows, following a regimen of 2 days on treatment followed by 2 days […]. Tumor volume is shown. Each point represents the mean of N=8 mice per treatment arm and the error bars represent s.e. (G) Average tumor growth rate for each treatment arm are shown. (H) Protein lysate was harvested from mouse tumors at the end of the experiment and immunoblotted for LC3B, phospho-4E-BP1 T37_T65, phospho-4E-BP1 S240_S244 and Actin. Quantification of proteins standardized to control mice levels are shown to the right.
Five to seven-week old NOD-scid gamma (NSG) mice (Jackson Laboratory) were used for xenograft studies with the 1205Lu melanoma cell line. Tumor generation, tumor measurement and tumor harvesting performed as previously described (ref). For the pancreatic cancer model, five to seven-week old C57BL/6 mice (Jackson Laboratory) and maintained under pathogen-free conditions. 2×10^6 G43 cells were subcutaneously injected with an equal volume of matrigel (BD) over the right flank […] and tumors became palpable after 5-6 days. Mice were enrolled on day 6 and given Gemcitabine (120 mg/kg, i.p.). DQ661 (4 mg/kg, i.p.) was given on days 7, 8, 12, 13, 17 and 18. Perpendicular tumor diameters were measured sing electronic calipers and volume was calculated leveraging the formula L×W^2×0.5, where L is the longest dimension and W is the perpendicular dimension. All animal experiments were performed in accordance to the protocols approved by the Institute of Animal Care and Use Committee of the University of Pennsylvania.
. After 1-2 weeks, tumors were palpable and mice were treated with vehicle control (water), quinacrine (8 mg/kg), DQ660 (8 mg/kg) or DQ661 (8 mg/kg) i.p (FIG. 5A). […]. Therefore another 1205Lu xenograft experiment was performed with mice treated with either vehicle control (water, n=6) or DQ661 (2 or 4 mg/kg, n=6) for a period of 14 days (FIG. 5e, 5F).

NS(=O)(=O)C#Cc1ccccc1 [PES]
4E-BP1 phosphorylation (mTORC1): hyperphosphorylation of 4E-BP1

COc1ccc2nc3cc(Cl)ccc3c(NCCCNCCCNc3c4ccc(Cl)cc4nc4ccc(OC)cc34)c2c1 [DQ 330]
anti-proliferative potency / activity (comparative) (A375P (melanoma) cells): significant increase in anti-proliferative potency

COC(=O)[C@H](CC(C)C)NC(=O)[C@@H](N)CC(C)C [LLOMe, L-leucyl-L-leucine methyl ester, reference compound]
galectin-3 staining pattern (A375P cells [1]): punctate distribution of galectin-3

CNC(=O)c1ccccc1Oc1nc(Nc2cc(OC)c(OC)c(OC)c2)ncc1Br [SBI-0206965, reference compound]
anti-proliferative potency / activity (comparative) (A375P (melanoma) cells): did not have significantly increased anti-cancer activity relative to monomeric chloroquine or monomeric quinacrine | apoptosis (annexin V) (PANC1 cells): did not induce significant levels of apoptosis

Pepstatin A
mTORC1 activity (Western blotting) (mTORC1): did not significantly affect mTORC1 activity

COc1ccc2nc3cc(Cl)ccc3c(NCCCCN(C)CCCNc3c4ccc(Cl)cc4nc4ccc(OC)cc34)c2c1 [DQ 341]
effect on autophagic flux (LC3II/LC3I ratio with vs without bafilomycin-A1) (451Lu (melanoma) cells): autophagy inhibitors

COc1ccc2nc3cc(Cl)ccc3c(NCCN(C)CCNc3c4ccc(Cl)cc4nc4ccc(OC)cc34)c2c1 [DQ 221]
anti-proliferative potency / activity (comparative) (A375P (melanoma) cells): same activity as monomeric QC; also recorded: potency was equal to monomeric quinacrine | effect on autophagic flux (LC3II/LC3I ratio with vs without bafilomycin-A1) (451Lu (melanoma) cells): autophagy inhibitors | galectin-3 staining pattern (A375P cells [1]): diffuse staining for galectin-3

COc1ccc2nc3cc(Cl)ccc3c(NCCCCNCCCNc3c4ccc(Cl)cc4nc4ccc(OC)cc34)c2c1 [DQ 340]
IC50, anti-proliferative activity (A375P (melanoma) cells; A375P cells, FIG. 1B): low nanomolar

COc1ccc2nc3cc(Cl)ccc3c(NCCCCCCNCCCCCCNc3c4ccc(Cl)cc4nc4ccc(OC)cc34)c2c1 [DQ 660]
DNA damage (phospho-H2AX, γ-H2AX) (A375P cells [2]): significantly greater levels of DNA damage relative to their methylated counterparts | galectin-3 staining pattern (A375P cells [1]): diffuse staining for galectin-3 | tumor growth [3]: modest but significant growth impairment of tumors

Bafilomycin
4E-BP1 phosphorylation (mTORC1): hyperphosphorylation of 4E-BP1

Fc1ccc(CNc2ncnc3ccc(F)cc23)cc1 [Spautin-1, reference compound]
anti-proliferative potency / activity (comparative) (A375P (melanoma) cells): did not have significantly increased anti-cancer activity relative to monomeric chloroquine or monomeric quinacrine | apoptosis (annexin V) (PANC1 cells): did not induce significant levels of apoptosis

COc1ccc2nc3cc(Cl)ccc3c(NCCCCN(C)CCCCNc3c4ccc(Cl)cc4nc4ccc(OC)cc34)c2c1 [DQ 441]
effect on autophagic flux (LC3II/LC3I ratio with vs without bafilomycin-A1) (451Lu (melanoma) cells): autophagy inhibitors

COc1ccc2nc3cc(Cl)ccc3c(NCCCCCNCCCCCNc3c4ccc(Cl)cc4nc4ccc(OC)cc34)c2c1 [DQ 550]
DNA damage (phospho-H2AX, γ-H2AX) (A375P cells [2]): significantly greater levels of DNA damage relative to their methylated counterparts | galectin-3 staining pattern (A375P cells [1]): diffuse staining for galectin-3

Fc1ccc(-n2cc(CCCCN3CCC4(CC3)OCc3ccccc34)c3ccccc32)cc1 [Siramesine]
mTORC1 activity (Western blotting) (mTORC1): did not inhibit mTORC1 activity

COc1ccc2nc3cc(Cl)ccc3c(NCCCCCN(C)CCCCCNc3c4ccc(Cl)cc4nc4ccc(OC)cc34)c2c1 [DQ 551]
effect on autophagic flux (LC3II/LC3I ratio with vs without bafilomycin-A1) (451Lu (melanoma) cells): autophagy inhibitors | galectin-3 staining pattern (A375P cells [1]): punctate distribution of galectin-3

CCN(CC)CCCC(C)Nc1c2ccc(Cl)cc2nc2ccc(OC)cc12 (centres unmarked) [quinacrine, reference compound]
effect on autophagic flux (LC3II/LC3I ratio with vs without bafilomycin-A1) (451Lu (melanoma) cells): induces autophagic flux | galectin-3 staining pattern (A375P cells [1]): diffuse staining for galectin-3 | tumor growth [3]: no significant effect on tumor growth compared to vehicle control
